Tests used:
[1] = Binding constant towards cyclodextrin conjugated peptide (with pyrene) at 25 degrees Centigrade
[2] = Sensitivity value towards cyclodextrin conjugated peptide (with pyrene) at 25 degrees Centigrade; parameters: concentration or dose not given beside the values

Row | SMILES | Activity [1] | Change in sensitivity [2]
1 | C[C@H](CCC(=O)O)[C@H]1CC[C@H]2[C@@H]3CC[C@@H]4C[C@H](O)CCC4(C)[C@H]3C[C@H](O)[C@]12C (single isomer, unassigned) | 1100 Kb M-1 | 0.01
2 | C[C@H](CCC(=O)O)[C@H]1CC[C@H]2[C@@H]3[C@H](O)C[C@@H]4C[C@H](O)CC[C@]4(C)[C@H]3C[C@H](O)[C@]12C | 900 Kb M-1 | 0.008
3 | C[C@H](CCC(=O)O)[C@H]1CC[C@H]2[C@@H]3C[C@H](O)[C@@H]4C[C@H](O)CC[C@]4(C)[C@H]3CC[C@]12C | 210000 Kb M-1 | 0.4
4 | C[C@H](CCC(=O)O)[C@H]1CC[C@H]2[C@@H]3CC[C@@H]4C[C@H](O)CC[C@]4(C)[C@H]3CC[C@]12C | 439000 Kb M-1 | 0.45
5 | C[C@H](CCC(=O)O)[C@H]1CC[C@H]2[C@@H]3[C@H](O)C[C@@H]4C[C@H](O)CC[C@]4(C)[C@H]3CC[C@]12C | 33300 Kb M-1 | 0.16
6 | C[C@H](CCC(=O)O)[C@H]1CC[C@H]2[C@@H]3[C@@H](O)C[C@@H]4C[C@H](O)CC[C@]4(C)[C@H]3CC[C@]12C | 173000 Kb M-1 | 0.4

Reference: ChEMBL document CHEMBL1136471, “Fluorescence resonance energy transfer in a novel cyclodextrin-peptide conjugate for detecting steroid molecules” (Bioorg Med Chem Lett, 2003)
